Data: patent US7129257B1, “Pyrazolo[3,4- e]benzoxazoles for the treatment of glaucoma” (Alcon, Inc., priority 2003, dated 2006)

What was measured:
[1] = target: T1, 5-HT2A receptor (Rattus norvegicus, UniProt P14842); assay: 5-HT2 Functional Assay: [Ca2+]i Mobilization (FLIPR); type: cell-based; design: endogenous in cells; host or cells: A7r5 rat vascular smooth muscle cells; conditions: for EC50: [Ca2+]i mobilization, rat vascular smooth muscle cells A7r5; for Emax: percentage of maximum 5-HT-induced response, A7r5 cells
T1 sequence (P14842 whole entry): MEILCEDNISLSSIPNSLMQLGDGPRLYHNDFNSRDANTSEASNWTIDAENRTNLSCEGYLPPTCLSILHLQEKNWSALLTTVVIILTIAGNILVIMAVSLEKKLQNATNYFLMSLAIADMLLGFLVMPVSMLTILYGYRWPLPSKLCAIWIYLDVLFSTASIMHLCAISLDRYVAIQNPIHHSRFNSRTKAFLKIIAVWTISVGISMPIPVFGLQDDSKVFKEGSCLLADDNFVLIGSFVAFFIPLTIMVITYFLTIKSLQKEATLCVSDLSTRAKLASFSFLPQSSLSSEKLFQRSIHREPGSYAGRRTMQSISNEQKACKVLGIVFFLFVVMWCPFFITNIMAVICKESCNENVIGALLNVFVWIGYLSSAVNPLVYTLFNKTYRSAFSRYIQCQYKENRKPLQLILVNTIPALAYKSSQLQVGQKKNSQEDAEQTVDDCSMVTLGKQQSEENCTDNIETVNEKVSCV
Protocol: 5-HT2 Functional Assay: [Ca^2+]i; Mobilization
The receptor-mediated mobilization on intracellular calcium ([Ca^2+]i) was studied using the Fluorescence Imaging Plate Reader (FLIPR) instrument. Rat vascular smooth muscle cells, A7r5, were grown in a normal media of DMEM/10% FBS and 10 μg/mL gentamycin. Confluent cell monolayers were trypsinized, pelleted, and re-suspended in normal media. Cells were seeded in a 50 μL volume at a density of 20,000 cells/well in a black wall, 96-well tissue culture plate and grown for 2 days.
On the day of the experiment, one vial of FLIPR Calcium Assay Kit dye was re-suspended in 50 mL of a FLIPR buffer consisting of Hank's Balanced Salt Solution (HBSS), 20 mM HEPES, and 2.5 mM probenecid, pH 7.4. Cells were loaded with the calcium-sensitive dye by addition of an equal volume (50 μL) to each well of the 96-well plate and incubated with dye for 1 h at 23° C.
Typically, test compounds were stored at 25 μM in 50% DMSO/50% Ethanol solvent. Compounds were diluted 1:50 in 20% DMSO/20% Ethanol. For “hit” screening, compounds were further diluted 1:10 in FLIPR buffer and tested at a final concentration of 10 μM. For dose-response experiments, compounds were diluted 1:50 in FLIPR buffer and serially diluted 1:10 to give a 5- or 8-point dose-response curve.
The compound plate and cell plate were placed in the FLIPR instrument. At the beginning of an experimental run, a signal test was performed to check the basal fluorescence signal from the dye-loaded cells and the uniformity of the signal across the plate. The basal fluorescence was adjusted between 8000–12000 counts by modifying the exposure time, the camera F-stop, or the laser power. Instrument settings for a typical assay were the following: laser power 0.3–0.6 W, camera F-stop F/2, and exposure time 0.4 sec. An aliquot (25 μL) of the test compound was added to the existing 100 μL dye-loaded cells at a dispensing speed of 50 μL/sec. Fluorescence data were collected in real-time at 1.0 sec intervals for the first 60 secs and at 6.0 sec intervals for an additional 120 secs. Responses were measured as peak fluorescence intensity minus basal and where appropriate were expressed as a percentage of a maximum 5-HT-induced response. When the compounds were tested as antagonists against 10 μM 5-HT, they were incubated with the cells for 15 minutes prior to the addition of 5-HT.

[2] = target: T1, 5-HT2A receptor; assay: 5-HT2 Receptor Binding Assay ([125I]DOI competition); conditions: [125I]DOI binding, post mortem rat or human cerebral cortex homogenates
Protocol: The procedures described herein in Method 1 can be used to confirm a compound's 5-HT2 binding affinity.
5-HT2 Receptor Binding Assay
Aliquots of post mortem rat or human cerebral cortex homogenates (400 μL) dispersed in 50 mM TrisHCl buffer (pH 7.4) are incubated with [^125I]DOI (80 pM final) in the absence or presence of methiothepin (10 μM final) to define total and non-specific binding, respectively, in a total volume of 0.5 mL. The assay mixture is incubated for 1 hour at 23° C. in polypropylene tubes and the assays terminated by rapid vacuum filtration over Whatman GF/B glass fiber filters previously soaked in 0.3% polyethyleneimine using ice-cold buffer. Test compounds (at different concentrations) are substituted for methiothepin. Filter-bound radioactivity is determined by scintillation spectrometry on a beta counter. The data are analyzed using a non-linear, iterative curve-fitting computer program [Trends Pharmacol. Sci., 16, 413 (1995)] to determine the compound affinity parameter. The concentration of the compound needed to inhibit the [^125I]DOI binding by 50% of the maximum is termed the IC50 or Ki value.

| SMILES | melting point [°C] | EC50 [1] [nM] | Emax [1] [%] | IC50 [2] [nM] |
| --- | --- | --- | --- | --- |
| C[C@H](N)Cn1ncc2ccc3oc(C(N)=O)nc3c21 [Example 3, 1-[(S)-2-Aminopropyl]-1H-pyrazolo[3,4-e]benzoxazole-7-carboxylic acid amide] | 60 to 65 | 445 | 72 | – |
| COCc1nc2c(ccc3cnn(C[C@H](C)N)c32)o1 [Example 2, (S)-2-[7-(Methoxymethyl)-1H-pyrazolo[3,4-e]benzoxazol-1-yl]-1-methylethylamine] | 40 to 43 | 174 | 88 | 6 |
| COc1nc2c(ccc3cnn(C[C@H](C)N)c32)o1 [Example 1, (S)-2-(7-Methoxy-1H-pyrazolo[3,4-e]benzoxazol-1-yl)-1-methylethylamine] | – | 352 | 72 | 8 |
| CNC(=O)c1nc2c(ccc3cnn(C[C@H](C)N)c32)o1 [Example 4, 1-[(S)-2-Aminopropyl]-1H-pyrazolo[3,4-e]benzoxazole-7-carboxylic acid methylamide] | – | 907 | 77 | 19 |
